Experiments:
Assay in all cases: relative viability (nuclei count vs DMSO), 5 days (fraction); higher = more cells survive
Bosutinib + Navitoclax = compound: COc1cc(Nc2c(C#N)cnc3cc(OCCCN4CCN(C)CC4)c(OC)cc23)c(Cl)cc1Cl [Bosutinib] + CC1(C)CCC(c2ccc(Cl)cc2)=C(CN2CCN(c3ccc(C(=O)NS(=O)(=O)c4ccc(N[C@H](CCN5CCOCC5)CSc5ccccc5)c(S(=O)(=O)C(F)(F)F)c4)cc3)CC2)C1 [Navitoclax] (partner 0.5 µM)
Outline: (§1)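 Each reported value is a median over duplicate plates. It expresses relative viability: treated-well nuclei count divided by vehicle-well nuclei count. Lung cancer cell lines in 1536-well plates were dosed by pin tool a day after seeding, alone with one drug or with a fixed anchor-drug dose plus five library-drug doses (not always all listed) in √10 steps, and nuclei were counted after 5 days.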

Bosutinib + Foretinib = compound: COc1cc(Nc2c(C#N)cnc3cc(OCCCN4CCN(C)CC4)c(OC)cc23)c(Cl)cc1Cl [Bosutinib] + COc1cc2c(Oc3ccc(NC(=O)C4(C(=O)Nc5ccc(F)cc5)CC4)cc3F)ccnc2cc1OCCCN1CCOCC1 [Foretinib] (partner 0.25 µM)
Outline: as §1

Bosutinib + Tozasertib = compound: COc1cc(Nc2c(C#N)cnc3cc(OCCCN4CCN(C)CC4)c(OC)cc23)c(Cl)cc1Cl [Bosutinib] + Cc1cc(Nc2cc(N3CCN(C)CC3)nc(Sc3ccc(NC(=O)C4CC4)cc3)n2)n[nH]1 [Tozasertib] (partner 0.1 µM)
Outline: as §1

Bosutinib + Dasatinib = compound: COc1cc(Nc2c(C#N)cnc3cc(OCCCN4CCN(C)CC4)c(OC)cc23)c(Cl)cc1Cl [Bosutinib] + Cc1nc(Nc2ncc(C(=O)Nc3c(C)cccc3Cl)s2)cc(N2CCN(CCO)CC2)n1 [Dasatinib] (partner 0.075 µM)
Outline: as §1

Bosutinib + Decitabine = compound: COc1cc(Nc2c(C#N)cnc3cc(OCCCN4CCN(C)CC4)c(OC)cc23)c(Cl)cc1Cl [Bosutinib] + Nc1ncn([C@H]2C[C@H](O)[C@@H](CO)O2)c(=O)n1 [Decitabine] (partner 2 µM)
Outline: as §1

Cell Line	relative viability (Bosutinib + Navitoclax; first compound 0.01 µM)	relative viability (Bosutinib + Navitoclax; first compound 0.03162 µM)	relative viability (Bosutinib + Navitoclax; first compound 0.1 µM)	relative viability (Bosutinib + Navitoclax; first compound 1 µM)	relative viability (Bosutinib + Foretinib; first compound 0.01 µM)	relative viability (Bosutinib + Foretinib; first compound 0.03162 µM)	relative viability (Bosutinib + Foretinib; first compound 0.1 µM)	relative viability (Bosutinib + Foretinib; first compound 1 µM)	relative viability (Bosutinib + Tozasertib; first compound 0.01 µM)	relative viability (Bosutinib + Tozasertib; first compound 0.03162 µM)	relative viability (Bosutinib + Tozasertib; first compound 0.1 µM)	relative viability (Bosutinib + Tozasertib; first compound 1 µM)	relative viability (Bosutinib + Dasatinib; first compound 0.01 µM)	relative viability (Bosutinib + Dasatinib; first compound 0.03162 µM)	relative viability (Bosutinib + Dasatinib; first compound 0.1 µM)	relative viability (Bosutinib + Dasatinib; first compound 1 µM)	relative viability (Bosutinib + Decitabine; first compound 0.01 µM)	relative viability (Bosutinib + Decitabine; first compound 0.03162 µM)	relative viability (Bosutinib + Decitabine; first compound 0.1 µM)	relative viability (Bosutinib + Decitabine; first compound 1 µM)
201T	1.2	1.2	1.2	1.14	1.08	1.06	0.991	0.548	0.92	0.913	0.951	0.713	0.612	0.571	0.57	0.544	0.892	0.874	0.848	0.821
A549	1.2	1.26	1.27	1.07	0.946	1	0.92	0.908	–	–	–	–	–	–	–	–	0.279	0.226	0.237	0.261
A-427	0.947	0.97	1.05	0.888	1.02	1	1.14	0.972	0.231	0.227	0.217	0.194	0.767	0.843	0.665	0.732	0.596	0.56	0.617	0.612
ABC-1	–	–	–	–	0.902	1.17	1.21	0.895	0.217	0.168	0.144	0.177	0.548	0.605	0.65	0.488	1.21	1.22	0.997	0.807
BEN	0.0464	0.0561	0.0932	0.0522	0.755	0.637	0.682	0.516	0.499	0.439	0.48	0.539	0.315	0.339	0.344	0.368	0.668	0.752	0.819	0.668
CAL-12T	1.23	1.16	1.09	1.12	1.11	1.09	1.11	0.834	0.32	0.316	0.322	0.318	0.383	0.426	0.417	0.467	–	–	–	–
COR-L23	1.17	1.06	0.959	1.06	1.04	0.938	0.971	0.967	0.195	0.236	0.194	0.198	0.551	0.537	0.501	0.619	0.432	0.421	0.414	0.454
COR-L 105	0.808	0.825	0.84	0.492	1.05	1.05	0.895	0.844	0.344	0.371	0.325	0.308	0.383	0.363	0.397	0.353	0.642	0.608	0.72	0.47
ChaGo-K-1	0.602	1.33	1.31	1.56	1	0.866	0.981	0.931	0.22	0.254	0.224	0.213	0.662	0.56	0.637	0.6	0.496	0.536	0.511	0.518
EKVX	0.882	0.929	0.914	0.807	0.723	0.82	0.693	0.469	0.373	0.379	0.355	0.236	0.549	0.505	0.611	0.491	0.382	0.38	0.311	0.336
EMC-BAC-2	1.2	1.1	1.15	1.15	1.02	0.981	1.06	0.768	0.287	0.291	0.311	0.282	0.356	0.325	0.347	0.328	0.963	0.967	0.992	0.988
EPLC-272H	1.05	1.09	1.15	1.35	0.657	0.677	0.704	0.58	0.307	0.339	0.347	0.351	0.476	0.425	0.447	0.409	0.358	0.383	0.418	0.321
H3255	0.669	0.574	0.485	0.218	0.835	0.885	0.969	0.79	0.696	0.645	0.719	0.326	0.369	0.381	0.364	0.288	–	0.725	0.804	0.354
HARA	1.16	1.1	1.12	1.19	0.869	0.872	0.878	0.646	0.119	0.149	0.104	0.125	0.303	0.296	0.304	0.385	0.581	0.547	0.618	0.489

— the supplement of paper PMC10307832
